The text below walks through data of patent publication US11759462B2, “Spirocyclic compounds as tryptophan hydroxylase inhibitors” (priority 2013, dated 2023).

Each structure is given as a SMILES string.

This assay concerns jejunal mucosal 5-HT in mice (C57 BL6). Description: Intestinal 5-HT depletion assay (Example B, single 150 mg/kg oral dose). To be noted: one day after oral administration of a single 150 mg/kg dose, P-value class (ANOVA). Format: in vivo, mouse. As to the method:
The efficacy of the TPH1 inhibitors of the invention was assessed for the ability to decrease intestinal serotonin concentration in mice. Mice (C57 BL6) were administered a single 150 mg/kg dose of test article by oral gavage. Each animal was euthanized by exsanguination under isoflurane anesthesia. Jejunal intestinal mucosa was isolated and homogenized in 300 μL of a buffer containing 0.3M trichloroacetic acid, 0.1M sodium acetate, 10 mM EDTA, 20 mM sodium bisulfate and 50 mM ascorbic acid. Following centrifugation the 5-HT levels in the supernatants were measured by HPLC. The remaining mucosal pellet was solubilized overnight at 37° C. in a 0.1% sodium dodecyl sulfate buffer in 0.1N NaOH followed by determination of protein concentrations using a BCA protein assay (Pierce, Rockford, Ill. 5-HT levels were normalized to protein and data were expressed as mean percent reduction of mucosal 5-HT levels relative to vehicle control SEM (percent 5-HT reduction). All animal studies were carried out with protocols approved by the Institutional Animal Care and Use Committee.
P-values, indicating statistical significance of the data (ANOVA) are provided in the table: * refers to P<0.05, ** refers to P<0.01, *** refers to P<0.005, and refers to P<0.0005.

Take `CCOC(=O)c1cccc(-c2ccc([C@@H](Oc3cc(N4CCC5(CC4)CN[C@H](C(=O)O)C5)nc(N)n3)C(F)(F)F)c(-n3ccc(C)n3)c2)c1` [Example 5]: the “Efficacy (statistical significance of reduction of mucosal 5-HT concentrations relative to vehicle)” value is on record as “** (** refers to P<0.01)”.
Consider `Cc1ccn(-c2cc(C(F)(F)F)ccc2[C@@H](Oc2cc(N3CCC4(CC3)CN[C@H](C(=O)O)C4)nc(N)n2)C(F)(F)F)n1` [Example 10g, (S)-8-(2-amino-6-((R)-2,2,2-trifluoro-1-(2-(3-methyl-1H-pyrazol-1-yl)-4-(trifluoromethyl)phenyl)ethoxy)pyrimidin-4-yl)-2,8-diazaspiro[4.5]decane-3-carboxylic acid], for which the “Efficacy (statistical significance of reduction of mucosal 5-HT concentrations relative to vehicle)” value was “** (** refers to P<0.01)”.
As for `Cc1ccc([C@@H](Oc2cc(N3CCC4(CC3)CN[C@H](C(=O)O)C4)nc(N)n2)C(F)(F)F)c(-n2ccc(C)n2)c1` [Example 10h, (S)-8-(2-amino-6-((R)-2,2,2-trifluoro-1-(4-methyl-2-(3-methyl-1H-pyrazol-1-yl)phenyl)ethoxy)pyrimidin-4-yl)-2,8-diazaspiro[4.5]decane-3-carboxylic acid], the “Efficacy (statistical significance of reduction of mucosal 5-HT concentrations relative to vehicle)” value is “*** (*** refers to P<0.005)”.
The result for `Cc1ccn(-c2cc(Cl)ccc2[C@@H](Oc2cc(N3CCC4(CC3)CN[C@H](C(=O)O)C4)nc(C)n2)C(F)(F)F)n1` [Example 28, (S)-8-(6-((R)-1-(4-chloro-2-(3-methyl-H-pyrazol-1-yl)phenyl)-2,2,2-trifluoroethoxy)-2-methylpyrimidin-4-yl)-2,8-diazaspiro[4.5]decane-3-carboxylic acid] reads “* (* refers to P<0.05)”.
The result for `Cc1ccn(-c2cc(-c3cccnc3)ccc2[C@@H](Oc2cc(N3CCC4(CC3)CN[C@H](C(=O)O)C4)nc(C)n2)C(F)(F)F)n1` [Example 29z, (S)-8-(2-methyl-6-((R)-2,2,2-trifluoro-1-(2-(3-methyl-1H-pyrazol-1-yl)-4-(pyridin-3-yl)phenyl)ethoxy)pyrimidin-4-yl)-2,8-diazaspiro[4.5]decane-3-carboxylic acid] reads “** (** refers to P<0.01)”.
The result for `Cc1ccn(-c2cc(Cl)ccc2[C@@H](Oc2cc(N3CCC4(CC3)CNC(C(=O)O)C4)nc(NC3CCCCC3)n2)C(F)(F)F)n1` (stereo partly drawn) [Example 31, 8-(6-((R)-1-(4-chloro-2-(3-methyl-H-pyrazol-1-yl)phenyl)-2,2,2-trifluoroethoxy)-2-(cyclohexylamino)pyrimidin-4-yl)-2,8-diazaspiro[4.5]decane-3-carboxylic acid] reads “* (* refers to P<0.05)”; that for `Nc1nc(O[C@H](c2ccc(Cl)cc2-c2ccccc2)C(F)(F)F)cc(N2CCC3(CC2)CN[C@H](C(=O)O)C3)n1` [Example 34r, (S)-8-(2-amino-6-((R)-1-(5-chloro-[1,1′-biphenyl]-2-yl)-2,2,2-trifluoroethoxy)pyrimidin-4-yl)-2,8-diazaspiro[4.5]decane-3-carboxylic acid], “*** (*** refers to P<0.005)”.
With `CCOC(=O)C1CC2(CCN(c3cc(O[C@H](c4ccc(Cl)cc4-n4ccc(C)n4)C(F)(F)F)nc(N)n3)CC2)CN1` (stereo partly drawn) [Example 63ay, ethyl 8-(2-amino-6-((R)-1-(4-chloro-2-(3-methyl-1H-pyrazol-1-yl)phenyl)-2,2,2-trifluoroethoxy)pyrimidin-4-yl)-2,8-diazaspiro[4.5]decane-3-carboxylate], the “Efficacy (statistical significance of reduction of mucosal 5-HT concentrations relative to vehicle)” value is on record as “*** (*** refers to P<0.005)”.
The result for `CCOC(=O)[C@@H]1CC2(CCN(c3cc(O[C@H](c4ccc(-c5cccc(OC)c5)cc4)C(F)(F)F)nc(N)n3)CC2)CN1` [Example 63ba, (S)-ethyl 8-(2-amino-6-((R)-2,2,2-trifluoro-1-(3′-methoxy-[1,1′-biphenyl]-4-yl)ethoxy)pyrimidin-4-yl)-2,8-diazaspiro[4.5]decane-3-carboxylate] reads “*** (*** refers to P<0.005)”; that for `CCOC(=O)[C@@H]1CC2(CCN(c3cc(O[C@H](c4ccc(CC)cc4-n4ccc(C)n4)C(F)(F)F)nc(N)n3)CC2)CN1` [Example 63be, (S)-ethyl 8-(2-amino-6-((R)-1-(4-ethyl-2-(3-methyl-1H-pyrazol-1-yl)phenyl)-2,2,2-trifluoroethoxy)pyrimidin-4-yl)-2,8-diazaspiro[4.5]decane-3-carboxylate], “*** (*** refers to P<0.005)”; that for `CCOC(=O)c1ccc(-n2ccc(C)n2)c([C@@H](Oc2cc(N3CCC4(CC3)CN[C@H](C(=O)OCC)C4)nc(N)n2)C(F)(F)F)c1` [Example 63bh, (S)-ethyl 8-(2-amino-6-((R)-1-(5-(ethoxycarbonyl)-2-(3-methyl-1H-pyrazol-1-yl)phenyl)-2,2,2-trifluoroethoxy)pyrimidin-4-yl)-2,8-diazaspiro[4.5]decane-3-carboxylate], “** (** refers to P<0.01)”.
On to `CCOC(=O)c1ccc([C@@H](Oc2cc(N3CCC4(CC3)CN[C@H](C(=O)OCC)C4)nc(N)n2)C(F)(F)F)c(-n2ccc(C)n2)c1` [Example 63bi, (S)-ethyl 8-(2-amino-6-((R)-1-(4-(ethoxycarbonyl)-2-(3-methyl-1H-pyrazol-1-yl)phenyl)-2,2,2-trifluoroethoxy)pyrimidin-4-yl)-2,8-diazaspiro[4.5]decane-3-carboxylate], for which the “Efficacy (statistical significance of reduction of mucosal 5-HT concentrations relative to vehicle)” value is “** (** refers to P<0.01)”.
The result for `CCCCc1ccc(-n2ccc(C)n2)c([C@@H](Oc2cc(N3CCC4(CC3)CN[C@H](C(=O)OCC)C4)nc(N)n2)C(F)(F)F)c1` [Example 63bq, (S)-ethyl 8-(2-amino-6-((R)-1-(5-butyl-2-(3-methyl-1H-pyrazol-1-yl)phenyl)-2,2,2-trifluoroethoxy)pyrimidin-4-yl)-2,8-diazaspiro[4.5]decane-3-carboxylate] reads “**** (and refers to P<0.0005)”; that for `CCOC(=O)[C@@H]1CC2(CCN(c3cc(O[C@H](c4ccc(-c5ccc6c(c5)CCNC6=O)cc4)C(F)(F)F)nc(N)n3)CC2)CN1` [Example 63bx, (S)-ethyl 8-(2-amino-6-((R)-2,2,2-trifluoro-1-(4-(1-oxo-1,2,3,4-tetrahydroisoquinolin-6-yl)phenyl)ethoxy)pyrimidin-4-yl)-2,8-diazaspiro[4.5]decane-3-carboxylate], “*** (*** refers to P<0.005)”; that for `CCOC(=O)[C@@H]1CC2(CCN(c3cc(O[C@H](c4ccc(-c5ccc6cnccc6c5)cc4)C(F)(F)F)nc(N)n3)CC2)CN1` [Example 63by, (S)-ethyl 8-(2-amino-6-((R)-2,2,2-trifluoro-1-(4-(isoquinolin-6-yl)phenyl)ethoxy)pyrimidin-4-yl)-2,8-diazaspiro[4.5]decane-3-carboxylate], “*** (*** refers to P<0.005)”.
